Test results as given in ChEMBL document CHEMBL4507257, “Data for DCP probe ABT-100” (2021).

Tests used:
[1] = target: Tyrosine-protein kinase ZAP-70 (Homo sapiens) (UniProt P43403); details: Compound concentration 1000.0 nM
[2] = target: Mast/stem cell growth factor receptor Kit (Homo sapiens) (UniProt P10721); details: Compound concentration 1000.0 nM
[3] = target: Serine/threonine-protein kinase PknB (Mycobacterium tuberculosis) (UniProt P9WI81); details: Compound concentration 1000.0 nM
[4] = system: ALK tyrosine kinase receptor (Homo sapiens), Q9UM73 [C1156Y]; details: Compound concentration 1000.0 nM
[5] = target: Serine/threonine-protein kinase Nek11 (Homo sapiens) (UniProt Q8NG66); details: Compound concentration 1000.0 nM
[6] = target: Serine/threonine-protein kinase Chk2 (Homo sapiens) (UniProt O96017); details: Compound concentration 1000.0 nM
Histamine H1 receptor = Histamine H1 receptor (Homo sapiens, UniProt P35367); details: Compound concentration 10.0 uM
[7] = system: Mast/stem cell growth factor receptor Kit (Homo sapiens), P10721 [D816V]; details: Compound concentration 1000.0 nM
[8] = target: Cyclin-dependent kinase 4 (Homo sapiens) (UniProt P11802); details: Compound concentration 1000.0 nM
[9] = target: Dual specificity testis-specific protein kinase 1 (Homo sapiens) (UniProt Q15569); details: Compound concentration 1000.0 nM
[10] = target: Leukocyte tyrosine kinase receptor (Homo sapiens) (UniProt P29376); details: Compound concentration 1000.0 nM
[11] = target: Serine/threonine-protein kinase TBK1 (Homo sapiens) (UniProt Q9UHD2); details: Compound concentration 1000.0 nM
[12] = target: Serine/threonine-protein kinase 33 (Homo sapiens) (UniProt Q9BYT3); details: Compound concentration 1000.0 nM
[13] = target: Histamine H2 receptor (Homo sapiens) (UniProt P25021); details: Compound concentration 10.0 uM
[14] = target: Sodium-dependent dopamine transporter (Homo sapiens) (UniProt Q01959); details: Compound concentration 10.0 uM
[15] = target: Dual specificity mitogen-activated protein kinase kinase 2 (Homo sapiens) (UniProt P36507); details: Compound concentration 1000.0 nM
[16] = system: Tyrosine-protein kinase ABL1 (Homo sapiens), P00519 [E255K]; details: Compound concentration 1000.0 nM
[17] = target: MAP kinase-interacting serine/threonine-protein kinase 2 (Homo sapiens) (UniProt Q9HBH9); details: Compound concentration 1000.0 nM
[18] = target: Proto-oncogene tyrosine-protein kinase ROS (Homo sapiens) (UniProt P08922); details: Compound concentration 1000.0 nM
[19] = target: Mitogen-activated protein kinase 13 (Homo sapiens) (UniProt O15264); details: Compound concentration 1000.0 nM
[20] = target: Histamine H3 receptor (Homo sapiens) (UniProt Q9Y5N1); details: Compound concentration 10.0 uM
[21] = system: Receptor-type tyrosine-protein kinase FLT3 (Homo sapiens), P36888 [D835V]; details: Compound concentration 1000.0 nM
[22] = target: Serine/threonine-protein kinase ULK2 (Homo sapiens) (UniProt Q8IYT8); details: Compound concentration 1000.0 nM
[23] = system: Receptor-type tyrosine-protein kinase FLT3 (Homo sapiens), P36888 [UNDEFINED MUTATION]; details: Compound concentration 1000.0 nM
[24] = target: Insulin-like growth factor 1 receptor (Homo sapiens) (UniProt P08069); details: Compound concentration 1000.0 nM
[25] = target: Calcium/calmodulin-dependent protein kinase type II subunit beta (Homo sapiens) (UniProt Q13554); details: Compound concentration 1000.0 nM
[26] = target: Tyrosine-protein kinase Lck (Homo sapiens) (UniProt P06239); details: Compound concentration 1000.0 nM
[27] = system: Mast/stem cell growth factor receptor Kit (Homo sapiens), P10721 [V559D,V654A]; details: Compound concentration 1000.0 nM
[28] = target: Serine/threonine-protein kinase D1 (Homo sapiens) (UniProt Q15139); details: Compound concentration 1000.0 nM
[29] = target: Mitogen-activated protein kinase 6 (Homo sapiens) (UniProt Q16659); details: Compound concentration 1000.0 nM
[30] = target: Ribosomal protein S6 kinase alpha-6 (Homo sapiens) (UniProt Q9UK32); details: Compound concentration 1000.0 nM
[31] = target: Epithelial discoidin domain-containing receptor 1 (Homo sapiens) (UniProt Q08345); details: Compound concentration 1000.0 nM
[32] = target: Wee1-like protein kinase 2 (Homo sapiens) (UniProt P0C1S8); details: Compound concentration 1000.0 nM
[33] = target: Serine/threonine-protein kinase 38-like (Homo sapiens) (UniProt Q9Y2H1); details: Compound concentration 1000.0 nM
[34] = target: Ribosomal protein S6 kinase beta-1 (Homo sapiens) (UniProt P23443); details: Compound concentration 1000.0 nM
[35] = target: 3-phosphoinositide-dependent protein kinase 1 (Homo sapiens) (UniProt O15530); details: Compound concentration 1000.0 nM
[36] = target: Proto-oncogene tyrosine-protein kinase Src (Homo sapiens) (UniProt P12931); details: Compound concentration 1000.0 nM
[37] = target: G protein-coupled receptor kinase 3 (Homo sapiens) (UniProt P35626); details: Compound concentration 1000.0 nM
[38] = target: Alpha-2A adrenergic receptor (Homo sapiens) (UniProt P08913); details: Compound concentration 10.0 uM
[39] = target: STE20/SPS1-related proline-alanine-rich protein kinase (Homo sapiens) (UniProt Q9UEW8); details: Compound concentration 1000.0 nM
[40] = target: Serine/threonine-protein kinase 32A (Homo sapiens) (UniProt Q8WU08); details: Compound concentration 1000.0 nM
[41] = target: Dual specificity mitogen-activated protein kinase kinase 7 (Homo sapiens) (UniProt O14733); details: Compound concentration 1000.0 nM
[42] = target: Death-associated protein kinase 2 (Homo sapiens) (UniProt Q9UIK4); details: Compound concentration 1000.0 nM
[43] = target: Serine/threonine-protein kinase Nek1 (Homo sapiens) (UniProt Q96PY6); details: Compound concentration 1000.0 nM
[44] = target: Tyrosine-protein kinase FRK (Homo sapiens) (UniProt P42685); details: Compound concentration 1000.0 nM

Insulin-like growth factor 1 receptor (Homo sapiens), sequence (P08069 31-736 limits assumed): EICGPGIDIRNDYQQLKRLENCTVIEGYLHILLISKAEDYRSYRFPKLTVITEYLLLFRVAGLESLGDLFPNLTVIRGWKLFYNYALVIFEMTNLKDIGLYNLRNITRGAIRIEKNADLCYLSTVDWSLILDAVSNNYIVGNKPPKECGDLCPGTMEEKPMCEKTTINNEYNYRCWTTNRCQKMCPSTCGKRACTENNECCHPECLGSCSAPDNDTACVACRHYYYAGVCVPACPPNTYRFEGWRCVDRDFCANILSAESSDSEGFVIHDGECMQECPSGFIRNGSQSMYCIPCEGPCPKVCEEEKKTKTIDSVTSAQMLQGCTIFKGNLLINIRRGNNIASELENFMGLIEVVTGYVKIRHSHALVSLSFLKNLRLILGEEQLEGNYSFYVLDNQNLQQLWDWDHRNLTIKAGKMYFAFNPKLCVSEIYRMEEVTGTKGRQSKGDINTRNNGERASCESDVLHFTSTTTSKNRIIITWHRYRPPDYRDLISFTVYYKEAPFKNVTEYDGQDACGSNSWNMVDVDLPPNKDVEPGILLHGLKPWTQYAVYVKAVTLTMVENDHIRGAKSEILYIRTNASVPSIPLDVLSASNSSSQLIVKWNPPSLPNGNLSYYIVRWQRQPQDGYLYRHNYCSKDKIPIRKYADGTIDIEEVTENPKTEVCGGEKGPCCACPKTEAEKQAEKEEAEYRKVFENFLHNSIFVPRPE
Insulin-like growth factor 1 receptor (Homo sapiens), sequence (P08069 741-1367 limits assumed): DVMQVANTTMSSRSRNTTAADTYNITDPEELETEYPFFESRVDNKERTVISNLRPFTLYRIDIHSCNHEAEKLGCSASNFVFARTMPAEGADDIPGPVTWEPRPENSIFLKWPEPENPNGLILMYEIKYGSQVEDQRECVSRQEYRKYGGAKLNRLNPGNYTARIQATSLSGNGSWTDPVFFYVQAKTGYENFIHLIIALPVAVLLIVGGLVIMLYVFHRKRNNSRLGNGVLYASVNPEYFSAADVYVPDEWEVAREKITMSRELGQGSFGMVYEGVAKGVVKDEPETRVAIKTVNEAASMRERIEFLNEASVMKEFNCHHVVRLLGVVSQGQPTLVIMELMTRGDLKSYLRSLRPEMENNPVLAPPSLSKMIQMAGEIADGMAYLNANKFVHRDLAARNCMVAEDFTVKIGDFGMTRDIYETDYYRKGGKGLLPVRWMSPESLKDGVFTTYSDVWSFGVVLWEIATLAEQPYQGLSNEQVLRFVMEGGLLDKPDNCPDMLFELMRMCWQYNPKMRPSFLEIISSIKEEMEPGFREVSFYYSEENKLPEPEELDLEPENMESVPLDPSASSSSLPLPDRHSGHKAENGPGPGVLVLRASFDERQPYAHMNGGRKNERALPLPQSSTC
Epithelial discoidin domain-containing receptor 1 (Homo sapiens), sequence (Q08345 whole entry, the tested form may be a part): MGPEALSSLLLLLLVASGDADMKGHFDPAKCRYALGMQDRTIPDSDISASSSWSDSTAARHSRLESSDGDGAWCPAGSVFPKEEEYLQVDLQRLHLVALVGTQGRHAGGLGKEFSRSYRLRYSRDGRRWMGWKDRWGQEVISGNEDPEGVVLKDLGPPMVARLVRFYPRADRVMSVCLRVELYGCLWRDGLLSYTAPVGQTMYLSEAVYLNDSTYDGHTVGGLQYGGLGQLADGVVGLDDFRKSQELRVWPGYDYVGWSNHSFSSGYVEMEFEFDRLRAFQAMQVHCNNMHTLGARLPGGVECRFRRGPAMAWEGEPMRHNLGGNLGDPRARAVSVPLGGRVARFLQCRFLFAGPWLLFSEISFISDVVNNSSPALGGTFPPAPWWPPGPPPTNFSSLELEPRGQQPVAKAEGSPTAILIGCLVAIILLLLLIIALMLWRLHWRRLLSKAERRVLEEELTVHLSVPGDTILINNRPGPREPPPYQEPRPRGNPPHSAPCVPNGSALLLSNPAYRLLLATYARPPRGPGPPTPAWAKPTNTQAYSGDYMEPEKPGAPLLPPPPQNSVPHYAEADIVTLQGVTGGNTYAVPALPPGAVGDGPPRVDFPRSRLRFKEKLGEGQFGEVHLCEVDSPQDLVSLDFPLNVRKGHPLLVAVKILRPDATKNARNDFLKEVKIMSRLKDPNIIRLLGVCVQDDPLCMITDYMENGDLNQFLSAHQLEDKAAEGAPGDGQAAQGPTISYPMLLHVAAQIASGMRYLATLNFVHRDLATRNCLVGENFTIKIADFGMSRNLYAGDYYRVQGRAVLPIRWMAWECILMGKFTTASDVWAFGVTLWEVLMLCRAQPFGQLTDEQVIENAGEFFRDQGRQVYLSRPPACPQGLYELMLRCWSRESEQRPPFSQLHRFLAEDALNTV
Tyrosine-protein kinase ZAP-70 (Homo sapiens), sequence (P43403 whole entry): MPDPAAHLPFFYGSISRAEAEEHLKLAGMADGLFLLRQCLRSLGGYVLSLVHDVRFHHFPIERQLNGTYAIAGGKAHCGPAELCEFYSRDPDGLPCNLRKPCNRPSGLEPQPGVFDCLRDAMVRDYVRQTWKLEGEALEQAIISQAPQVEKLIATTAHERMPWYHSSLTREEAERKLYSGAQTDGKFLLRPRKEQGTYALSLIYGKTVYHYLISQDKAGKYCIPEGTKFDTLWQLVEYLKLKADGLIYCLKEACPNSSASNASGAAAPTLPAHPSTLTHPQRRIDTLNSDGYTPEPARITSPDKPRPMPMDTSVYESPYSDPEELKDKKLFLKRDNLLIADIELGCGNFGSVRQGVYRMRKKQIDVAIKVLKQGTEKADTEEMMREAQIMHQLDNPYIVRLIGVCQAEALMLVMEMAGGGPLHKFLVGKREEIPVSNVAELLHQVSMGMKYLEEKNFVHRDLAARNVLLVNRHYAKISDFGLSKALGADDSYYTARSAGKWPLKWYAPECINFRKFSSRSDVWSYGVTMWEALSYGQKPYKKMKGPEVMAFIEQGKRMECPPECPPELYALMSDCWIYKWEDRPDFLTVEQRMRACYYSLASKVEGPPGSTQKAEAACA
Tyrosine-protein kinase ABL1 (Homo sapiens), P00519 [E255K], sequence (P00519 whole entry E255K): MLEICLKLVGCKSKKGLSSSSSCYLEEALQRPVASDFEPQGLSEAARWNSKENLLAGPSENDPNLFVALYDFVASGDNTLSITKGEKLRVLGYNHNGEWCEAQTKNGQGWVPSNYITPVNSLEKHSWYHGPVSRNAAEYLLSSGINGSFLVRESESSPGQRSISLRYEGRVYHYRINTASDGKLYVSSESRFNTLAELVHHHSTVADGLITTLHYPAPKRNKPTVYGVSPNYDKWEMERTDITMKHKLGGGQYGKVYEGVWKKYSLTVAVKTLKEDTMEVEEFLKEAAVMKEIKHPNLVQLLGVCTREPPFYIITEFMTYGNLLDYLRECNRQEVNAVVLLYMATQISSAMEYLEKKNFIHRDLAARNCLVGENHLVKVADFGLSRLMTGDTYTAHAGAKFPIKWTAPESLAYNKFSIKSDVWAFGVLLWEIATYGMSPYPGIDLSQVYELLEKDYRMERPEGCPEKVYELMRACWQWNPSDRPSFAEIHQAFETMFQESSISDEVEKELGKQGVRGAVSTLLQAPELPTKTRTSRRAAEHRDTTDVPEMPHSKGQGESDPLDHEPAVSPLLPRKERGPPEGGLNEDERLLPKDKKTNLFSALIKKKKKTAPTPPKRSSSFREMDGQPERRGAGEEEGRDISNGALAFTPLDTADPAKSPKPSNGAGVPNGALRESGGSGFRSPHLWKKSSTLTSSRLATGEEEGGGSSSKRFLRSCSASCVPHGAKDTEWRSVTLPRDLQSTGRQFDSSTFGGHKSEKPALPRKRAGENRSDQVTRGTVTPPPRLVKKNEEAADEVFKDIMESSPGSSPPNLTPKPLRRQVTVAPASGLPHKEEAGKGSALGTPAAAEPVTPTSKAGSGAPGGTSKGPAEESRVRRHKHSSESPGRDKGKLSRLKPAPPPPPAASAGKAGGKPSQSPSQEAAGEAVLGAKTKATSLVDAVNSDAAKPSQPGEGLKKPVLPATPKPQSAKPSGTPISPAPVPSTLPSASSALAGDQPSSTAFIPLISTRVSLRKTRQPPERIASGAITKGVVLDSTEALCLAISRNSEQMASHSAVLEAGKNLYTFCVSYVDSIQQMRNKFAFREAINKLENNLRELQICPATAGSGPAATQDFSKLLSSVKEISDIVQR
Leukocyte tyrosine kinase receptor (Homo sapiens), sequence (P29376 whole entry): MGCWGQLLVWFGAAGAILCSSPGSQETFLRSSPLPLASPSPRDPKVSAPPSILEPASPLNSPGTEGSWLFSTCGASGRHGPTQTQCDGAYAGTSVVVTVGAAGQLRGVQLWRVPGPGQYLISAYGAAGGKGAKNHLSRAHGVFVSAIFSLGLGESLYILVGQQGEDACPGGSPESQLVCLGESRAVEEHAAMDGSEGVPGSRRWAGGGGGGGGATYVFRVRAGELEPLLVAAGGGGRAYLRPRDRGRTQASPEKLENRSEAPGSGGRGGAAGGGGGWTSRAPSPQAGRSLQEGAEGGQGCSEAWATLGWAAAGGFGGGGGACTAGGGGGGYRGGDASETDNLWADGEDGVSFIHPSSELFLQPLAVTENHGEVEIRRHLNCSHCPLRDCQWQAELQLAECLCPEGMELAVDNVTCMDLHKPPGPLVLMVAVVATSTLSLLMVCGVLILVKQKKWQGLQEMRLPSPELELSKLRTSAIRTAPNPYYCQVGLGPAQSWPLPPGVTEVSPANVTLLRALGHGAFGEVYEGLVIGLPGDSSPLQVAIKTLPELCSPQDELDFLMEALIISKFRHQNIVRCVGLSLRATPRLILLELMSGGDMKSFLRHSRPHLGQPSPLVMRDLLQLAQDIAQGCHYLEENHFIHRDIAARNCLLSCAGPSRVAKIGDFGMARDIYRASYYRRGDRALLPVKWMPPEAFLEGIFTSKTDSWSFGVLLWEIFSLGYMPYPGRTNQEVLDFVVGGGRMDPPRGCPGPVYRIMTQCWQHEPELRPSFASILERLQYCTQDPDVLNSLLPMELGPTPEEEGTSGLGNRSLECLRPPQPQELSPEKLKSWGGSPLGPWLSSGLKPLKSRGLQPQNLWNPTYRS

`Cn1cncc1[C@@](O)(COc1ccc(C#N)cc1-c1ccc(OC(F)(F)F)cc1)c1ccc(C#N)cc1` [A-108] was tested, and the residual activity [1] was 100%, the residual activity [2] was 90% and the residual activity [3] was 78%. For the same compound, the residual activity [4] was 98%, the residual activity [5] was 100% and the residual activity [6] was 96%. For the same compound, the inhibition (Histamine H1 receptor) was 43.5%, the residual activity [7] was 100% and the residual activity [8] was 93%. It also gave a residual activity [9] of 92%, a residual activity [10] of 100% and a residual activity [11] of 100%. The residual activity [12] was 69%, the inhibition [13] was 5.38% and the inhibition [14] was 6.63%. The residual activity [15] was 74%, the residual activity [16] was 72% and the residual activity [17] was 74%. The residual activity [18] was 96%, the residual activity [19] was 90% and the inhibition [20] was 17.8%. The residual activity [21] was 89%, the residual activity [22] was 100% and the residual activity [23] was 80%. The residual activity [24] was 100%, the residual activity [25] was 90% and the residual activity [26] was 100%. It also gave a residual activity [27] of 100%, a residual activity [28] of 98% and a residual activity [29] of 93%. For the same compound, the residual activity [30] was 94%, the residual activity [31] was 100% and the residual activity [32] was 100%. The residual activity [33] was 87%, the residual activity [34] was 94% and the residual activity [35] was 96%. The residual activity [36] was 100%, the residual activity [37] was 100% and the inhibition [38] was 3.37%. The residual activity [39] was 100%, the residual activity [40] was 75% and the residual activity [41] was 96%. The residual activity [42] was 97%, the residual activity [43] was 100% and the residual activity [44] was 100%.
`Cn1cncc1[C@](O)(COc1ccc(C#N)cc1-c1ccc(OC(F)(F)F)cc1)c1ccc(C#N)cc1` [ABT-100] showed a residual activity [1] of 78%, a residual activity [2] of 95% and a residual activity [3] of 97%. The residual activity [4] was 92%, the residual activity [5] was 100% and the residual activity [6] was 100%. It also gave an inhibition (Histamine H1 receptor) of 88.8%, a residual activity [7] of 85% and a residual activity [8] of 100%. It also gave a residual activity [9] of 100%, a residual activity [10] of 91% and a residual activity [11] of 100%. The residual activity [12] was 74%, the inhibition [13] was 14.4% and the inhibition [14] was 9.99%. For the same compound, the residual activity [15] was 94%, the residual activity [16] was 94% and the residual activity [17] was 85%. It also gave a residual activity [18] of 89%, a residual activity [19] of 87% and an inhibition [20] of 5.92%. It also gave a residual activity [21] of 100%, a residual activity [22] of 100% and a residual activity [23] of 69%. It also gave a residual activity [24] of 92%, a residual activity [25] of 85% and a residual activity [26] of 82%. It also gave a residual activity [27] of 100%, a residual activity [28] of 99% and a residual activity [29] of 85%. For the same compound, the residual activity [30] was 91%, the residual activity [31] was 97% and the residual activity [32] was 84%. For the same compound, the residual activity [33] was 65%, the residual activity [34] was 96% and the residual activity [35] was 87%. The residual activity [36] was 81%, the residual activity [37] was 48% and the inhibition [38] was 32.2%. It also gave a residual activity [39] of 50%, a residual activity [40] of 100% and a residual activity [41] of 100%. For the same compound, the residual activity [42] was 82%, the residual activity [43] was 80% and the residual activity [44] was 100%.
